Experimental data from ChEMBL document CHEMBL1138341, “(S)-N-{3-[1-cyclopropyl-1-(2,4-difluoro-phenyl)-ethyl]-1H-indol-7-yl}-methanesulfonamide: a potent, nonsteroidal, functional antagonist of the mineralocorticoid receptor” (J Med Chem, 2007).
Active and inactive are the calls of the source. No cut-off for these calls is given here.

Experiments:
[1] = target: T1, Mineralocorticoid receptor (Homo sapiens) (UniProt P08235); assay: Antagonist activity at human mineralocorticoid receptor expressed in COS7 cells after 24 hrs by luciferase reporter gene assay; type: functional, cell-based; details: COS-7
T1 sequence (whole entry): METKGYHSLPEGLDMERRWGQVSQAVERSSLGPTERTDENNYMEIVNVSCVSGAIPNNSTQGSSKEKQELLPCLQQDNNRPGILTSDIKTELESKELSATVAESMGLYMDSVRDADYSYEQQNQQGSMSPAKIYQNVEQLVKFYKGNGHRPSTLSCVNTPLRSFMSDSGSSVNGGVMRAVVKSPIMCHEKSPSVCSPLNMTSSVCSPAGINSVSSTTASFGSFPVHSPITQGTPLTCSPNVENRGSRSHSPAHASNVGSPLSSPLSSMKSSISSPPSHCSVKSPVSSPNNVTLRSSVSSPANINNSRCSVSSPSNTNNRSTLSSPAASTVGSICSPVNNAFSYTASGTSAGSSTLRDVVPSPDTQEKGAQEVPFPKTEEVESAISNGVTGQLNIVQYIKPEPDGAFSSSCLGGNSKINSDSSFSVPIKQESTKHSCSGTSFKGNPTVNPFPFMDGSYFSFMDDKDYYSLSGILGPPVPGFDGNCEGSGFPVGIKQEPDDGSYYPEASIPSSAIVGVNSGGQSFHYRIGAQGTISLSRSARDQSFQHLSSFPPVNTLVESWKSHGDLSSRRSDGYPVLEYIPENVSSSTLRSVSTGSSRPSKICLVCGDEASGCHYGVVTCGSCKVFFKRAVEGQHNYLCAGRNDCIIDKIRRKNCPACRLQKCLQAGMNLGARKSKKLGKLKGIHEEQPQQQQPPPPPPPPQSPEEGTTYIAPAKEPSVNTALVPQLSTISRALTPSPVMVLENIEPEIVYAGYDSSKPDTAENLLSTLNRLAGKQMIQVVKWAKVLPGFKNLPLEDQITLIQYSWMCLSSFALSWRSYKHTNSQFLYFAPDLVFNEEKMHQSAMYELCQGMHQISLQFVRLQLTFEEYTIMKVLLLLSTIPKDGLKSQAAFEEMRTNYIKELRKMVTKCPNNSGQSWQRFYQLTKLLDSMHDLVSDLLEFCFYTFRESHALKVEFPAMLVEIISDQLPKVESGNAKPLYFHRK

Estrogen receptor = target: T2, Estrogen receptor (Homo sapiens, UniProt P03372); assay: Binding affinity to human estrogen receptor
T2 sequence (P03372 whole entry): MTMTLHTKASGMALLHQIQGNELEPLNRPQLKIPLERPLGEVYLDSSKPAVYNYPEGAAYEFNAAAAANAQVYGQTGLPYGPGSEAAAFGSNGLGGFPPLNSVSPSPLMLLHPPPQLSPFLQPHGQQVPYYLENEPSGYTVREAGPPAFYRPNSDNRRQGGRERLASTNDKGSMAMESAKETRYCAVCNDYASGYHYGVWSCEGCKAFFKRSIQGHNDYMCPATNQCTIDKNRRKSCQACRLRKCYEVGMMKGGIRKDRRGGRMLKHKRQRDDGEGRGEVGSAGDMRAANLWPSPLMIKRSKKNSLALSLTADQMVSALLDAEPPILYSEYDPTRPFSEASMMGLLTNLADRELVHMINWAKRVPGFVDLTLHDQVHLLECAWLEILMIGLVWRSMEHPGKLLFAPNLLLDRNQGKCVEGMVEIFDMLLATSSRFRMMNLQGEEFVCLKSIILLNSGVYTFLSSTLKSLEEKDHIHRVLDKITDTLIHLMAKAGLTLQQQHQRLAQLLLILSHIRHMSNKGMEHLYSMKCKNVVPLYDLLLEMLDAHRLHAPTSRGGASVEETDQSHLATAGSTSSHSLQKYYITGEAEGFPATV

Androgen receptor = target: T3, Androgen receptor (Homo sapiens, UniProt P10275); assay: Binding affinity to human androgen receptor
T3 sequence (P10275 whole entry): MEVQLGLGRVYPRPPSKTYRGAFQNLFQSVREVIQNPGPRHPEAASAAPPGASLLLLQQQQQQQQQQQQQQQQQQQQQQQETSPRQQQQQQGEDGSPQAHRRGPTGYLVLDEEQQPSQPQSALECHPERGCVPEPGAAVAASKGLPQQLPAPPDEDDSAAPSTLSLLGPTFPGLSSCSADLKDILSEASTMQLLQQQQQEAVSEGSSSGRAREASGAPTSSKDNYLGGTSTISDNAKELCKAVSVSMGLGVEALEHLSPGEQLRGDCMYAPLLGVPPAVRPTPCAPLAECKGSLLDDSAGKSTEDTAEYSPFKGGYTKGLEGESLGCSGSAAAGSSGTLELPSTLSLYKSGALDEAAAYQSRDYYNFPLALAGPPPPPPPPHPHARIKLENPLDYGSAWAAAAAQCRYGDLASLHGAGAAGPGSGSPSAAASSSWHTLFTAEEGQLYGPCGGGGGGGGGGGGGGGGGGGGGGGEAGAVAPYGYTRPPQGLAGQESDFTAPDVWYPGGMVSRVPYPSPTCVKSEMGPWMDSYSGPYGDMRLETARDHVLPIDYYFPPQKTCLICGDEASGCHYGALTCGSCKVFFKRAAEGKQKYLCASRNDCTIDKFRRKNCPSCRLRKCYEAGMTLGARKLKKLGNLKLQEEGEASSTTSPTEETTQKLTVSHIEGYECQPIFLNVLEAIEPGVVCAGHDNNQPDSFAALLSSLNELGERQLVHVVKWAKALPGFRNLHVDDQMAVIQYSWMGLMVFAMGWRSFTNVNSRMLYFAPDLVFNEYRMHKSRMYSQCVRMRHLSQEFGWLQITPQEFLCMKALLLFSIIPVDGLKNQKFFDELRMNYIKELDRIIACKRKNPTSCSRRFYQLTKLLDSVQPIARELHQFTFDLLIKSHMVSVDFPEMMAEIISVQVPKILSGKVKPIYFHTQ

Progesterone receptor = target: T4, Progesterone receptor (Homo sapiens, UniProt P06401); assay: Binding affinity to human progesterone receptor
T4 sequence (P06401 whole entry): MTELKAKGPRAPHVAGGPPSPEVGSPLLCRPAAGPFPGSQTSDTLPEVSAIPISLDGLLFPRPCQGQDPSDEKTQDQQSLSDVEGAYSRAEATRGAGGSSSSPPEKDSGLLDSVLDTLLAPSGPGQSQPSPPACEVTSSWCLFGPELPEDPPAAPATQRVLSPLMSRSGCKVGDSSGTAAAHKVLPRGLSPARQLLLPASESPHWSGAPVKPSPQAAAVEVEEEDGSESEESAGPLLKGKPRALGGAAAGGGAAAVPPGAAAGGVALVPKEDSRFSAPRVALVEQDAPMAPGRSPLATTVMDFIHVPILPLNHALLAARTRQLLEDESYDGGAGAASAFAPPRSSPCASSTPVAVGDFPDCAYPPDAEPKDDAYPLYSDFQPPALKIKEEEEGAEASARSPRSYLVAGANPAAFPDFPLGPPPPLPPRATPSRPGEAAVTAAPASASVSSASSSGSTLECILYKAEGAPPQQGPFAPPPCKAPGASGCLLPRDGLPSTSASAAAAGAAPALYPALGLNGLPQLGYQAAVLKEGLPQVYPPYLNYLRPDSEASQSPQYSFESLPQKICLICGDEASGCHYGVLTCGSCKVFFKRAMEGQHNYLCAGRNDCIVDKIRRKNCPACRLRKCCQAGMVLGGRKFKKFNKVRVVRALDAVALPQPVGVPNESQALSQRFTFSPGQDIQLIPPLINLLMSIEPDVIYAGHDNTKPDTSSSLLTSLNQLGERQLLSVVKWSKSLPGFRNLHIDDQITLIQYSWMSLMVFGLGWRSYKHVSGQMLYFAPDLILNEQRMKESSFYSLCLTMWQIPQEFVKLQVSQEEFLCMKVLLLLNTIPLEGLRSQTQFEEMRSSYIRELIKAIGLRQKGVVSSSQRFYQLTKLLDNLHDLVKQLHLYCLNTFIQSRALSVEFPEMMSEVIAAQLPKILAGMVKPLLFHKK

Rattus norvegicus [2] = assay: Reduction in aldosterone-induced hypertension in salt-loaded uni-nephrectomized Sprague-Dawley rat at 30 mg/kg, po qd after 14 days; type: functional, organism-based; design: dose 30 mg/kg
[3] = target: T5, Mineralocorticoid receptor (Homo sapiens, UniProt P08235); assay: Binding affinity to human mineralocorticoid receptor
T5 sequence (P08235 whole entry): T1 sequence (whole entry)

Glucocorticoid receptor = target: T6, Glucocorticoid receptor (Homo sapiens, UniProt P04150); assay: Binding affinity to human glucocorticoid receptor
T6 sequence (P04150 whole entry): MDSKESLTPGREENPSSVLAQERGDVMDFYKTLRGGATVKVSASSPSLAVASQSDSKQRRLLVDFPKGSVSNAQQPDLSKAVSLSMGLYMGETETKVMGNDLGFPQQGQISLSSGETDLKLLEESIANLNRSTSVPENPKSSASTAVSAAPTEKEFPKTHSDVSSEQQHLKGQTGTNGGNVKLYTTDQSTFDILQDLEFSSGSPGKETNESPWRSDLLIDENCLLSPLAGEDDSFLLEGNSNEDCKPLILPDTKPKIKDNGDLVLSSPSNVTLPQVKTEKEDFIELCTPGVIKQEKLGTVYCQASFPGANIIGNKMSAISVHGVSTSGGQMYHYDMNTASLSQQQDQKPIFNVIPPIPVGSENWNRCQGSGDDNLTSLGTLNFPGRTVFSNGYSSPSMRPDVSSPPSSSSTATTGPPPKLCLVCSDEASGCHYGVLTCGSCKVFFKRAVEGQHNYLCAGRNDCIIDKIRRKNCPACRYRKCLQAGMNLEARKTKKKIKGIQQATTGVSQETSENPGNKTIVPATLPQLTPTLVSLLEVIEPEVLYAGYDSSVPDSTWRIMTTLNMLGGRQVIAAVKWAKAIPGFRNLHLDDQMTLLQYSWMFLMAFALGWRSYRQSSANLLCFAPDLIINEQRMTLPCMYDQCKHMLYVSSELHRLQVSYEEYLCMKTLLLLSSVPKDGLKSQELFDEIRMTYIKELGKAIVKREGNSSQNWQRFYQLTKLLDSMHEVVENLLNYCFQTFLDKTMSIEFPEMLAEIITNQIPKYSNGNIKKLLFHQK

Rattus norvegicus [4] = assay: Reduction in aldosterone-induced hypertension in salt-loaded uni-nephrectomized Sprague-Dawley rat at 3 mg/kg, po qd after 14 days; type: functional, organism-based; design: dose 3 mg/kg

Row | Structure (SMILES) | Kb [1] [nM] | Ki (Estrogen receptor) [nM] | Ki (Androgen receptor) [nM] | Ki (Progesterone receptor) [nM] | Activity (Rattus norvegicus [2]) | Ki [3] [nM] | Ki (Glucocorticoid receptor) [nM] | Activity (Rattus norvegicus [4])
1 | COC(=O)[C@@H]1CC2=CC(=O)CC[C@]2(C)C2C1C1CC[C@@]3(CCC(=O)O3)[C@@]1(C)[C@H]1O[C@@H]21 (stereo partly specified) [EPIERENONE] | 189 | > 1100 | 8890 | 29400 | Active | 124 | 1760 | 
2 | CC(=O)S[C@@H]1CC2=CC(=O)CC[C@]2(C)[C@H]2CC[C@@]3(C)[C@@H](CC[C@@]34CCC(=O)O4)[C@H]12 [SPIRONOLACTONE] |  | > 1100 |  |  |  |  | 32.6 | 
3 | C[C@@](c1ccc(F)cc1)(c1c[nH]c2c(NS(C)(=O)=O)cccc12)C1CC1 | 38.2 | > 1100 | 849 | 137 |  | 1.56 | 167 | inactive
4 | C[C@@](c1ccc(F)cc1F)(c1c[nH]c2c(NS(C)(=O)=O)cccc12)C1CC1 |  | > 1100 | 700 | 163 |  |  |  | Active
5 | C[C@](c1ccc(F)cc1)(c1c[nH]c2c(NS(C)(=O)=O)cccc12)C1CC1 | 115 | > 1100 | 590 | 313 |  | 7.5 | 387 | 
